Results taken from patent US20250269018A1, “COMBINED CANCER THERAPY WITH AN EPITHELIAL CELL ADHESION MOLECULE (EPCAM) INHIBITOR AND A HEPATOCYTE GROWTH FACTOR RECEPTOR (HGFR) INHIBITOR” (ACADEMIA SINICA, priority 2021, published 2025).
Entries after “also recorded” stand apart in the source; their conditions may differ.

Tested on: HCT116 cells
Assay: Transwell migration/invasion and wound healing assay, HCT116
Assay type: cell-based, human
Conditions: for EpEX-induced invasion: 50 nM EpEX, LY 25 μM, U0 20 μM, PF 10 μM, Transwell with matrigel, FIG. 4K; for EpEX-induced migration and invasion: HCT116 cells, discussion statement
Protocol: FIGS. 3A to 3H. EpEX induces the activation of ERK and FAK-AKT signaling pathway. Wild type (WT) or EpCAM knockout (KO) HCT116 cells after EpEX-His treatment. (FIG. 3A) The levels of phosphorylated HGFR, AKT, FAK, GSK3β, ERK, ADAM17, and presenilin 2 were assayed by Western blotting. (FIG. 3B) Colony formation was examined by crystal violet staining. (FIG. 3C) HCT116 cells were treated with TAPI (ADAM17 inhibitor) or DAPT (γ-secretase inhibitor) for 24 hours, and the phosphorylation of HGFR, AKT, and ERK was analyzed by Western blotting, and EpEX protein level in culture medium was examined by immunoprecipitation and Western blotting. (FIG. 3D) HCT116 and HT29 cells were starved for 16 h, then treated with EpEX-His (50 nM) and HGF (0.5 nM) for 15 min. The levels of phosphorylated HGFR, AKT, and ERK were examined by Western blotting. (FIG. 3E) HCT116 cells were starved for 16 h, then treated with 50 nM EpEX-His for 15 min. HGFR inhibitor SU11274 (SU, 10 μM), AKT inhibitor LY294002 (LY, 25 μM), ERK inhibitor U0126 (U0, 20 μM), or FAK inhibitor PF-562271 (PF, 10 μM) were applied 1 h before EpEX treatment. Phosphorylation of AKT, ERK, and FAK was examined by Western blotting. (FIG. 3F) HCT116 cells were starved for 16 h, then treated with 50 nM EpEX, and SU (10 μM), LY (25 μM), U0 (20 μM) or PF (10 μM). Colony formation was examined by crystal violet staining after treatment for 7 days. The relative colony densities are shown. Migration ability was examined by the (FIG. 3G) wound healing assay at the indicated times. (FIG. 3H) The numbers of migration cell was assessed by a Transwell after treatment for 24 h.
FIGS. 4A to 4L. EpEX induces EMT and invasion by stabilizing β-catenin and Snail through decreasing GSK3β activity. (FIG. 4A) The protein expression of EMT markers and regulators was detected by Western blotting in Wild-type (WT) or EpCAM knockout (KO) HCT116 cells after EpEX treatment. (FIG. 4B) Cell invasion was examined by Transwell chamber assay with matrigel. (FIG. 4C) WT or KO HCT116 and HT29 cells were starved for 16 h, then treated with 0.5 nM of HGF with 2% FBS for 24 h. EMT-related protein expression (E-cadherin, vimentin, and Snail) was examined by Western blotting. (FIG. 4D) WT or KO HCT116 and HT29 cells were treated with HGF (0.5 nM) for 24 h. Invasion by HCT116 and HT29 cells was examined by Transwell chamber assay with matrigel. (FIG. 4E) HCT116 and HT29 cells were starved for 16 h, then treated with 0.5 nM of HGF with 2% FBS for 24 h. EMT-related protein expression (E-cadherin, Vimentin, and Snail) was examined by Western blotting. (FIG. 4F) HCT116 and HT29 cells were starved for 16 h, then treated with 0.5 nM of HGF with 2% FBS for 24 h. Cell invasion was assessed by a Transwell assay with matrigel. (FIG. 4G) HCT116 cells after shLuc and shHGFR treatment were treated with 50 nM of EpEX-His. HCT116 cells after shLuc and shHGFR treatment were treated with 50 nM of EpEX-His with 2% FBS for 24 h. EMT-related protein expression (E-cadherin, Vimentin, and Snail) was examined by Western blotting. (FIG. 4H) Cell invasion was examined by Transwell chamber assay with matrigel. (FIG. 4I) Starved HCT116 cells were treated SU (10 μM) for 1 h, followed by treatment with EpEX-His (50 nM) for 24 h. Phosphorylated GSK3β, active-β-catenin, and Snail were detected by Western blotting. (FIG. 4J) HCT116 cells were starved for 16 h, then treated with 50 nM EpEX-His for 24 min. AKT inhibitor LY294002 (25 μM), ERK inhibitor U0126 (20 μM), or PF-562271 (10 μM) were applied 1 h before EpEX treatment. Protein expression of phosphorylated GSK3β and Snail was examined by Western blotting. (FIG. 4K) HCT116 cells were starved for 16 h, then treated with 50 nM EpEX, and SU (10 μM), LY (25 μM), UO (20 μM) or PF (10 μM). Cell invasion was examined by Transwell chamber assay with matrigel. (FIG. 4L) Protein expression was analyzed by Western blotting in EpEX-His (50 nM) treated HCT116 cells after treatment with or without 2 μM GSK3β inhibitor (BIO) for 24 h. […]

Molecule	EpEX-induced invasion (HCT116)	EpEX-induced migration and invasion	invasion and migration activities of HCT116 cells (EpAb2-6 10 μg/ml, wound healing, Transwell with matrigel 24 h)	effects of EpAb2-6 on invasion and migration when treated with HGF after EpAb2-6 (HCT116, EpAb2-6 10 μg/ml and HGF 0.5 nM, FIGS. 6C and 6D)
CN(c1ncccc1CNc1nc(Nc2ccc3c(c2)CC(=O)N3)ncc1C(F)(F)F)S(C)(=O)=O [PF-562271]	suppressed	attenuate EpEX-induced migration and invasion		
N#CC(=C(/N)Sc1ccccc1N)/C(C#N)=C(\N)Sc1ccccc1N [U0126]	suppressed	attenuate EpEX-induced migration and invasion		
Cc1[nH]c(C=C2C(=O)Nc3ccc(S(=O)(=O)N(C)c4cccc(Cl)c4)cc32)c(C)c1C(=O)N1CCN(C)CC1 (stereo in doubt) [SU11274, (3Z)-N-(3-Chlorophenyl)-3-({3,5-dimethyl-4-[(4-methylpiperazin-1-yl)carbonyl]-1H-pyrrol-2-yl}methylene)-N-methyl-2-oxo-2,3-dihydro-1H-indole-5-sulfonamide]		attenuate EpEX-induced migration and invasion		
EpAb2-6: anti-EpCAM neutralizing monoclonal antibody targeting EpEX; VH SEQ ID NO: 15, VL SEQ ID NO: 16 (antibody, listed as Homo sapiens, V domains shown) VH: VKLQESGPELKKPGETVKISCKASGYTFTDYSMHWVKQAPGKGLKWMGWINTETGEPTYADDFKGRFAFSLETSASTAYLQINNLKNEDTATYFCARTAVYWGQGTTVTVSS VL: DIQMTQSPSSLSASLGERVSLTCRASQEISVSLSWLQQEPDGTIKRLIYATSTLDSGVPKRFSGSRSGSDYSLTISSLESEDFVDYYCLQYASYPWTFGGGTKLEIKRADAAPTVS			significantly reduced; also recorded: attenuate the invasion and migration capacity of HCT116 cells	partially blunted
